Holding throughout (format): functional, cell-based
In assay [1] the test system is HCT-116. As to the kind of experiment: Cytotoxicity against human HCT116 cells at 0.38 uM after 4 days by MTT assay.
In assay [2] the test system is HT-29. Nature of the assay: Cytotoxicity against human HT-29 cells at 2.6 uM after 4 days by MTT assay.
For assay [3], the system named is HCT-116. Nature of the assay: Cytotoxicity against human HCT116 cells after 4 days by MTT assay. To be noted: HCT-116, 96 h.

Structures are written as SMILES. Calls of active or inactive are those of the source. The calls are words filed in the database; no cut-off is given here.

For `C=C1CC[C@@]2(OC1)O[C@H]1C[C@H]3[C@@H]4CC[C@H]5C[C@@H](O[C@@H]6O[C@H](CO)[C@H](O[C@@H]7O[C@H](CO)[C@@H](O)[C@H](O[C@@H]8OC[C@@H](O)[C@H](O)[C@H]8O)[C@H]7O[C@@H]7O[C@H](CO)[C@@H](O)[C@H](O)[C@H]7O)[C@H](O)[C@H]6O)[C@H](O)C[C@]5(C)[C@H]4CC[C@]3(C)[C@H]1[C@@H]2C`, the result in assay [1] and in assay [2] was Active.

`CC(=O)O[C@H]1C(=O)[C@@]2(C)[C@H]([C@H](OC(=O)c3ccccc3)[C@]3(O)C[C@H](OC(=O)[C@H](O)[C@@H](NC(=O)c4ccccc4)c4ccccc4)C(C)=C1C3(C)C)[C@]1(OC(C)=O)CO[C@@H]1C[C@@H]2O` [PACLITAXEL] yielded an IC50 in assay [3] of 1.1 nM. In other words, the single-digit nanomolar range.

Values taken from ChEMBL document CHEMBL1151816, “Cytotoxic spirostane-type saponins from the roots of Chlorophytum borivilianum” (J Nat Prod, 2009).
